Experimental data from the supplement of paper PMC10307832.

Assays:
Experiment in all cases: relative viability (nuclei count vs DMSO), 5 days (fraction); higher = more cells survive
[1] = test system: LCLC-97TM1
How it was run: (§1)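 Relative viability divides the nuclei count in treated wells by that in vehicle wells. Lung cancer cell lines were seeded in 1536-well plates, dosed by pin tool the next day, and fixed and stained after 5 days in one step with final 0.05% Triton X-100, 1% formaldehyde and 1 ug/ml Hoechst. Dosing was a single drug or a fixed anchor-drug dose plus five library-drug doses (not always all listed) in √10 steps, and values are medians of duplicate plates imaged at 4×.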

[2] = test system: HOP-62
How it was run: as §1

[3] = test system: NCI-H2405
How it was run: as §1

[4] = test system: NCI-H522
How it was run: as §1

[5] = test system: LU99A
How it was run: as §1

[6] = test system: HCC-827
How it was run: as §1

[7] = test system: LXF-289
How it was run: as §1

[8] = test system: EKVX
How it was run: as §1

[9] = test system: NCI-H2170
How it was run: as §1

[10] = test system: NCI-H3122
How it was run: as §1

[11] = test system: PC-3 [JPC-3]
How it was run: as §1

[12] = test system: NCI-H441
How it was run: as §1

[13] = test system: NCI-H1355
How it was run: as §1

[14] = test system: ChaGo-K-1
How it was run: as §1

[15] = test system: NCI-H1993
How it was run: as §1

[16] = test system: LK-2
How it was run: as §1

[17] = test system: EPLC-272H
How it was run: as §1

[18] = test system: H3255
How it was run: as §1

In the case of `Cc1cn(-c2cc(NC(=O)c3ccc(C)c(Nc4nccc(-c5cccnc5)n4)c3)cc(C(F)(F)F)c2)cn1` [Nilotinib] + NC(=O)Nc1cc(-c2cccc(F)c2)sc1C(=O)N[C@H]1CCCNC1 [AZD7762] (partner 0.2 µM), the relative viability ([1]; first compound 0.003162 µM) is reported as 0.366, the relative viability ([1]; first compound 0.1 µM) is reported as 0.0966 and the relative viability ([2]; first compound 0.001 µM) is reported as 0.57. For the same molecule, the relative viability ([2]; first compound 0.003162 µM) was 0.549, the relative viability ([2]; first compound 0.01 µM) was 0.595 and the relative viability ([2]; first compound 0.03162 µM) was 0.271. For the same molecule, the relative viability ([3]; first compound 0.001 µM) was 0.684, the relative viability ([3]; first compound 0.003162 µM) was 0.628 and the relative viability ([3]; first compound 0.01 µM) was 0.665. It also gave a relative viability ([3]; first compound 0.03162 µM) of 0.557, a relative viability ([3]; first compound 0.1 µM) of 0.399 and a relative viability ([4]; first compound 0.01 µM) of 0.861. The relative viability ([4]; first compound 0.03162 µM) was 0.767, the relative viability ([4]; first compound 0.1 µM) was 0.649 and the relative viability ([5]; first compound 0.001 µM) was 0.247. It also gave a relative viability ([5]; first compound 0.003162 µM) of 0.513, a relative viability ([5]; first compound 0.01 µM) of 0.498 and a relative viability ([5]; first compound 0.03162 µM) of 0.33. It also gave a relative viability ([5]; first compound 0.1 µM) of 0.199, a relative viability ([6]; first compound 0.001 µM) of 0.172 and a relative viability ([6]; first compound 0.003162 µM) of 0.158. It also gave a relative viability ([6]; first compound 0.03162 µM) of 0.177, a relative viability ([6]; first compound 0.1 µM) of 0.204 and a relative viability ([7]; first compound 0.001 µM) of 1.03. For the same molecule, the relative viability ([7]; first compound 0.003162 µM) was 1.2, the relative viability ([7]; first compound 0.01 µM) was 1.21 and the relative viability ([7]; first compound 0.03162 µM) was 1.08. The relative viability ([7]; first compound 0.1 µM) was 0.642, the relative viability ([8]; first compound 0.001 µM) was 0.599 and the relative viability ([8]; first compound 0.003162 µM) was 0.654. The relative viability ([8]; first compound 0.01 µM) was 0.729, the relative viability ([8]; first compound 0.03162 µM) was 0.688 and the relative viability ([8]; first compound 0.1 µM) was 0.555. The relative viability ([9]; first compound 0.001 µM) was 0.744, the relative viability ([9]; first compound 0.003162 µM) was 1.32 and the relative viability ([9]; first compound 0.01 µM) was 0.856. It also gave a relative viability ([9]; first compound 0.03162 µM) of 0.602, a relative viability ([9]; first compound 0.1 µM) of 0.758 and a relative viability ([10]; first compound 0.001 µM) of 0.965. The relative viability ([10]; first compound 0.003162 µM) was 1.24, the relative viability ([10]; first compound 0.01 µM) was 1.37 and the relative viability ([10]; first compound 0.03162 µM) was 0.967. For the same molecule, the relative viability ([10]; first compound 0.1 µM) was 0.382, the relative viability ([11]; first compound 0.001 µM) was 0.8 and the relative viability ([11]; first compound 0.01 µM) was 0.737. For the same molecule, the relative viability ([11]; first compound 0.03162 µM) was 0.749, the relative viability ([11]; first compound 0.1 µM) was 0.527 and the relative viability ([12]; first compound 0.001 µM) was 1.08. It also gave a relative viability ([12]; first compound 0.003162 µM) of 1.21, a relative viability ([12]; first compound 0.01 µM) of 1.19 and a relative viability ([12]; first compound 0.03162 µM) of 0.714. The relative viability ([12]; first compound 0.1 µM) was 0.565, the relative viability ([13]; first compound 0.001 µM) was 0.718 and the relative viability ([13]; first compound 0.003162 µM) was 0.782. The relative viability ([13]; first compound 0.01 µM) was 0.801, the relative viability ([13]; first compound 0.03162 µM) was 0.439 and the relative viability ([13]; first compound 0.1 µM) was 0.583. For the same molecule, the relative viability ([14]; first compound 0.001 µM) was 0.884, the relative viability ([14]; first compound 0.003162 µM) was 0.975 and the relative viability ([14]; first compound 0.01 µM) was 0.853. It also gave a relative viability ([14]; first compound 0.03162 µM) of 0.638, a relative viability ([14]; first compound 0.1 µM) of 0.344 and a relative viability ([15]; first compound 0.001 µM) of 0.875. The relative viability ([15]; first compound 0.003162 µM) was 0.803, the relative viability ([15]; first compound 0.01 µM) was 0.819 and the relative viability ([15]; first compound 0.03162 µM) was 0.754. It also gave a relative viability ([15]; first compound 0.1 µM) of 0.559, a relative viability ([16]; first compound 0.001 µM) of 0.349 and a relative viability ([16]; first compound 0.003162 µM) of 0.447. The relative viability ([16]; first compound 0.01 µM) was 0.47, the relative viability ([16]; first compound 0.03162 µM) was 0.382 and the relative viability ([16]; first compound 0.1 µM) was 0.514. For the same molecule, the relative viability ([17]; first compound 0.001 µM) was 0.267, the relative viability ([17]; first compound 0.003162 µM) was 0.13 and the relative viability ([17]; first compound 0.01 µM) was 0.164. For the same molecule, the relative viability ([17]; first compound 0.03162 µM) was 0.186, the relative viability ([17]; first compound 0.1 µM) was 0.198 and the relative viability ([18]; first compound 0.001 µM) was 0.827. It also gave a relative viability ([18]; first compound 0.003162 µM) of 0.65, a relative viability ([18]; first compound 0.01 µM) of 0.908 and a relative viability ([18]; first compound 0.03162 µM) of 0.811. For the same molecule, the relative viability ([18]; first compound 0.1 µM) was 0.733.
Molecule `CN1CCN(CCOc2cc(OC3CCOCC3)c3c(Nc4c(Cl)ccc5c4OCO5)ncnc3c2)CC1` [Saracatinib] + NC(=O)Nc1cc(-c2cccc(F)c2)sc1C(=O)N[C@H]1CCCNC1 [AZD7762] (partner 0.2 µM) has a relative viability ([1]; first compound 0.02 µM) of 0.294, a relative viability ([1]; first compound 0.6325 µM) of 0.398 and a relative viability ([1]; first compound 2 µM) of 0.265. The relative viability ([2]; first compound 0.02 µM) was 0.945, the relative viability ([2]; first compound 0.2 µM) was 0.614 and the relative viability ([2]; first compound 0.6325 µM) was 0.707. For the same molecule, the relative viability ([2]; first compound 2 µM) was 0.905, the relative viability ([3]; first compound 0.02 µM) was 0.702 and the relative viability ([3]; first compound 0.2 µM) was 0.594. The relative viability ([3]; first compound 0.6325 µM) was 0.554, the relative viability ([3]; first compound 2 µM) was 0.388 and the relative viability ([4]; first compound 0.02 µM) was 0.961. The relative viability ([4]; first compound 0.2 µM) was 0.809, the relative viability ([4]; first compound 0.6325 µM) was 0.807 and the relative viability ([4]; first compound 2 µM) was 0.822. For the same molecule, the relative viability ([5]; first compound 0.02 µM) was 0.374, the relative viability ([5]; first compound 0.2 µM) was 0.279 and the relative viability ([5]; first compound 0.6325 µM) was 0.31. It also gave a relative viability ([5]; first compound 2 µM) of 0.325, a relative viability ([6]; first compound 0.02 µM) of 0.223 and a relative viability ([6]; first compound 0.2 µM) of 0.119. For the same molecule, the relative viability ([6]; first compound 0.6325 µM) was 0.145, the relative viability ([6]; first compound 2 µM) was 0.11 and the relative viability ([7]; first compound 0.02 µM) was 1.12. It also gave a relative viability ([7]; first compound 0.2 µM) of 1.09, a relative viability ([7]; first compound 0.6325 µM) of 1.12 and a relative viability ([7]; first compound 2 µM) of 1.1. For the same molecule, the relative viability ([8]; first compound 0.02 µM) was 0.841, the relative viability ([8]; first compound 0.6325 µM) was 0.659 and the relative viability ([8]; first compound 2 µM) was 0.29. For the same molecule, the relative viability ([9]; first compound 0.02 µM) was 0.867, the relative viability ([9]; first compound 0.2 µM) was 0.803 and the relative viability ([9]; first compound 0.6325 µM) was 0.872. The relative viability ([9]; first compound 2 µM) was 0.506, the relative viability ([10]; first compound 0.02 µM) was 0.97 and the relative viability ([10]; first compound 0.2 µM) was 0.922. The relative viability ([10]; first compound 0.6325 µM) was 0.889, the relative viability ([10]; first compound 2 µM) was 0.698 and the relative viability ([11]; first compound 0.02 µM) was 0.859. The relative viability ([11]; first compound 0.2 µM) was 0.638, the relative viability ([11]; first compound 0.6325 µM) was 0.573 and the relative viability ([11]; first compound 2 µM) was 0.448. For the same molecule, the relative viability ([12]; first compound 0.02 µM) was 1.06, the relative viability ([12]; first compound 0.2 µM) was 1.16 and the relative viability ([12]; first compound 0.6325 µM) was 1.2. For the same molecule, the relative viability ([12]; first compound 2 µM) was 1.03, the relative viability ([13]; first compound 0.02 µM) was 0.769 and the relative viability ([13]; first compound 0.2 µM) was 0.564. It also gave a relative viability ([13]; first compound 0.6325 µM) of 0.719, a relative viability ([13]; first compound 2 µM) of 0.715 and a relative viability ([14]; first compound 0.02 µM) of 0.895. For the same molecule, the relative viability ([14]; first compound 0.2 µM) was 0.614, the relative viability ([14]; first compound 0.6325 µM) was 0.967 and the relative viability ([14]; first compound 2 µM) was 0.924. It also gave a relative viability ([15]; first compound 0.02 µM) of 0.836, a relative viability ([15]; first compound 0.2 µM) of 0.719 and a relative viability ([15]; first compound 0.6325 µM) of 0.694. It also gave a relative viability ([15]; first compound 2 µM) of 0.581, a relative viability ([16]; first compound 0.02 µM) of 0.391 and a relative viability ([16]; first compound 0.2 µM) of 0.219. It also gave a relative viability ([16]; first compound 0.6325 µM) of 0.262, a relative viability ([16]; first compound 2 µM) of 0.133 and a relative viability ([17]; first compound 0.02 µM) of 0.203. It also gave a relative viability ([17]; first compound 0.2 µM) of 0.229, a relative viability ([17]; first compound 0.6325 µM) of 0.18 and a relative viability ([17]; first compound 2 µM) of 0.245. For the same molecule, the relative viability ([18]; first compound 0.02 µM) was 0.959, the relative viability ([18]; first compound 0.2 µM) was 0.917 and the relative viability ([18]; first compound 0.6325 µM) was 0.966. The relative viability ([18]; first compound 2 µM) was 0.346.
